These results are taken from US20260007684A1, “AMIDE DERIVATIVES FOR INHIBITING NLRP3 AND USES THEREOF” (Ventus Therapeutics U.S., Inc., priority 2023, published 2026).

Structures are written as SMILES. Some results are limits rather than exact numbers.

Sequence of human NLRP3 (Q96P20 whole entry): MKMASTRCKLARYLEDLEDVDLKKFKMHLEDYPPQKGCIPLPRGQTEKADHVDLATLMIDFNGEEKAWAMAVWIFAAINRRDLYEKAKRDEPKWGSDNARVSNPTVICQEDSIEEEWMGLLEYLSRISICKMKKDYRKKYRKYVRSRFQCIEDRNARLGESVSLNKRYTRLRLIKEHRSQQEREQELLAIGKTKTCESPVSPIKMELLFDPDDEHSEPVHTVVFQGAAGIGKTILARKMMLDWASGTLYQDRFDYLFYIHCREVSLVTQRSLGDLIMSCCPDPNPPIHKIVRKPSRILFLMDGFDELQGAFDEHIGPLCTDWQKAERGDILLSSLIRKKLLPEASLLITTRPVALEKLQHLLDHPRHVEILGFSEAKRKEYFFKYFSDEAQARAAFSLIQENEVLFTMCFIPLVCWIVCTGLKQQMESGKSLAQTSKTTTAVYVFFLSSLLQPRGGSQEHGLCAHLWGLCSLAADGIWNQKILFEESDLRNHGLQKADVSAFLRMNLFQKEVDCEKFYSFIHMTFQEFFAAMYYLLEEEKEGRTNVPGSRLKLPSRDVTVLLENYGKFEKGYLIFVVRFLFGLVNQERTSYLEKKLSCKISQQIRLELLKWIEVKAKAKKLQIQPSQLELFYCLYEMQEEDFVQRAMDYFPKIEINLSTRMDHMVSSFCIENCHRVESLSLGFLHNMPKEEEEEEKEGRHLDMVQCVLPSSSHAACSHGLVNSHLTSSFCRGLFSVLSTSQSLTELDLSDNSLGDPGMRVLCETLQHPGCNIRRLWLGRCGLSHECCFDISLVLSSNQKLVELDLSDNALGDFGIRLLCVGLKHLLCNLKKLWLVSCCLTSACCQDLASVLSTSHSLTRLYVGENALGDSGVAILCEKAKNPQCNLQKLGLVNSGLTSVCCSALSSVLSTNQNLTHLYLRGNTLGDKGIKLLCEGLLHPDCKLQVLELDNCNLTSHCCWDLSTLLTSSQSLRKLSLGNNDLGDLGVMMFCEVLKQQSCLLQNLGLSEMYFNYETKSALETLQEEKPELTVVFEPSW

The first experiment concerns the target human NLRP3 (Homo sapiens (Human), UniProt Q96P20). The experiment is described as follows: Scintillation Proximity (SPA) NLRP3 Assay: displacement of 3H-MCC950. Format: binding. The following applies: SPA IC50, displacement of 3H-MCC950. On the technique in general: Scintillation proximity formats need no separation of bound from free tracer.
Consider `O=C(N[C@@H]1CCC[C@H]2CC[C@@H]1N2c1nnn[nH]1)C1(c2ccc(C(F)(F)F)cc2O)CC1` [88C*, N-((1S,2R,6S)-9-(1H-tetrazol-5-yl)-9-azabicyclo[4.2.1]nonan-2-yl)-1-(2-hydroxy-4-(trifluoromethyl)phenyl)cyclopropane-1-carboxamide], for which the half-inhibitory concentration (IC50) – broadly, the midpoint of a concentration-inhibition curve – was 50 to 100 µM.
`O=C(N[C@H]1CCC[C@H]2CC[C@@H]1N2c1nnn[nH]1)C1(c2ccc(C(F)(F)F)cc2O)CC1` [88D*, N-((1S,2S,6S)-9-(1H-tetrazol-5-yl)-9-azabicyclo[4.2.1]nonan-2-yl)-1-(2-hydroxy-4-(trifluoromethyl)phenyl)cyclopropane-1-carboxamide] yielded an IC50 of 1 to 10 µM.
With `O=C(N[C@H]1CCC[C@@H]2CC[C@H]1N2c1nnn[nH]1)C1(c2ccc(C3CC3)cc2O)CC1` [93B*, N-((1R,2S,6R)-9-(1H-tetrazol-5-yl)-9-azabicyclo[4.2.1]nonan-2-yl)-1-(4-cyclopropyl-2-hydroxyphenyl)cyclopropane-1-carboxamide], the IC50 was in the range of 1 to 10 µM.
Same read-out and setting: then `O=C(N[C@@H]1CCC[C@H]2CC[C@@H]1N2c1nnn[nH]1)C1(c2ccc(C3CC3)cc2O)CC1` [93C*, N-((1S,2R,6S)-9-(1H-tetrazol-5-yl)-9-azabicyclo[4.2.1]nonan-2-yl)-1-(4-cyclopropyl-2-hydroxyphenyl)cyclopropane-1-carboxamide], with 10 to 50 µM; and `C[C@H]1C[C@@H]2CC[C@H]([C@@H](NC(=O)C3(c4ccc(C(F)(F)F)cc4)CC3)C1)N2c1nnn[nH]1` [104B*, N-((1R,2S,4R,6S)-4-methyl-9-(1H-tetrazol-5-yl)-9-azabicyclo[4.2.1]nonan-2-yl)-1-(4-(trifluoromethyl)phenyl)cyclopropane-1-carboxamide], with 10 to 50 µM; and `C[C@@H]1C[C@H]2CC[C@@H]([C@@H](NC(=O)C3(c4ccc(C(F)(F)F)cc4)CC3)C1)N2c1nnn[nH]1` [104D*, N-((1S,2S,4S,6R)-4-methyl-9-(1H-tetrazol-5-yl)-9-azabicyclo[4.2.1]nonan-2-yl)-1-(4-(trifluoromethyl)phenyl)cyclopropane-1-carboxamide], with 10 to 50 µM.
For `C[C@@H]1C[C@@H]2CC[C@H]([C@H](NC(=O)C3(c4ccc(C(F)(F)F)cc4)CC3)C1)N2c1nnn[nH]1` [104E*, N-((1R,2R,4S,6S)-4-methyl-9-(1H-tetrazol-5-yl)-9-azabicyclo[4.2.1]nonan-2-yl)-1-(4-(trifluoromethyl)phenyl)cyclopropane-1-carboxamide], the IC50 is 10 to 50 µM.

The same experiment, now with this note: displacement of 3H-MCC950; read-out: SPA IC50.
Take `C[C@@H]1C[C@H](NC(=O)C2(c3ccc(OC(F)(F)F)cc3)CC2)[C@H]2CC[C@@H]1N2c1nnn[nH]1` [82B*, N-((1R,2S,4R,5S)-4-methyl-8-(1H-tetrazol-5-yl)-8-azabicyclo[3.2.1]octan-2-yl)-1-(4-(trifluoromethoxy)phenyl)cyclopropane-1-carboxamide]: the IC50 was greater than 100 µM.
The same measure, in the same setting: to `C[C@H]1C[C@@H](NC(=O)C2(c3ccc(OC(F)(F)F)cc3)CC2)[C@@H]2CC[C@H]1N2c1nnn[nH]1` [82C*, N-((1S,2R,4S,5R)-4-methyl-8-(1H-tetrazol-5-yl)-8-azabicyclo[3.2.1]octan-2-yl)-1-(4-(trifluoromethoxy)phenyl)cyclopropane-1-carboxamide] belongs greater than 100 µM; to `C[C@H]1C[C@H](NC(=O)C2(c3ccc(OC(F)(F)F)cc3)CC2)[C@@H]2CC[C@H]1N2c1nnn[nH]1` [82D*, N-((1S,2S,4S,5R)-4-methy1-8-(1H-tetrazol-5-yl)-8-azabicyclo[3.2.1]octan-2-yl)-1-(4-(trifluoromethoxy)phenyl)cyclopropane-1-carboxamide], greater than 100 µM.
On to `C[C@@H]1C[C@H](NC(=O)C2(c3ccc(C4CC4)c(F)c3O)CC2)[C@H]2CC[C@@H]1N2c1nnn[nH]1` [83B*, 1-(4-cyclopropy1-3-fluoro-2-hydroxyphenyl)-N-((1R,2S,4R,5S)-4-methyl-8-(1H-tetrazol-5-yl)-8-azabicyclo[3.2.1]octan-2-yl)cyclopropane-1-carboxamide], for which the IC50 lay within 10 to 50 µM.
With `C[C@H]1C[C@@H](NC(=O)C2(c3ccc(C4CC4)c(F)c3O)CC2)[C@@H]2CC[C@H]1N2c1nnn[nH]1` [83C*, 1-(4-cyclopropy1-3-fluoro-2-hydroxyphenyl)-N-((1S,2R,4S,5R)-4-methy1-8-(1H-tetrazol-5-yl)-8-azabicyclo[3.2.1]octan-2-yl)cyclopropane-1-carboxamide], the IC50 is greater than 100 µM.
On the same count and under the same terms, to `C[C@H]1C[C@H](NC(=O)C2(c3ccc(C4CC4)c(F)c3O)CC2)[C@@H]2CC[C@H]1N2c1nnn[nH]1` [83D*, 1-(4-cyclopropyl-3-fluoro-2-hydroxyphenyl)-N-((1S,2S,4S,5R)-4-methy1-8-(1H-tetrazol-5-yl)-8-azabicyclo[3.2.1]octan-2-yl)cyclopropane-1-carboxamide] belongs greater than 100 µM; to `C[C@@H]1C[C@H](NC(=O)C2(c3ccc(C(F)(F)F)cc3F)CC2)[C@H]2CC[C@@H]1N2c1nnn[nH]1` [84B*, 1-(2-fluoro-4-(trifluoromethyl)phenyl)-N-((1R,2S,4R,5S)-4-methyl-8-(1H-tetrazol-5-yl)-8-azabicyclo[3.2.1]octan-2-yl)cyclopropane-1-carboxamide], 10 to 50 µM; to `C[C@H]1C[C@@H](NC(=O)C2(c3ccc(C(F)(F)F)cc3F)CC2)[C@@H]2CC[C@H]1N2c1nnn[nH]1` [84C*, 1-(2-fluoro-4-(trifluoromethyl)phenyl)-N-((1S,2R,4S,5R)-4-methy1-8-(1H-tetrazol-5-yl)-8-azabicyclo[3.2.1]octan-2-yl)cyclopropane-1-carboxamide], greater than 100 µM.
As for `C[C@H]1C[C@H](NC(=O)C2(c3ccc(C(F)(F)F)cc3F)CC2)[C@@H]2CC[C@H]1N2c1nnn[nH]1` [84D*, 1-(2-fluoro-4-(trifluoromethyl)phenyl)-N-((1S,2S,4S,5R)-4-methy1-8-(1H-tetrazol-5-yl)-8-azabicyclo[3.2.1]octan-2-yl)cyclopropane-1-carboxamide], the IC50 is greater than 100 µM.
With `C[C@@H]1C[C@H](NC(=O)C2(c3ccc(SC(F)F)cc3)CC2)[C@H]2CC[C@@H]1N2c1nnn[nH]1` [85B*, 1-(4-((difluoromethyl)thio)phenyl)-N-((1R,2S,4R,5S)-4-methyl-8-(1H-tetrazol-5-yl)-8-azabicyclo[3.2.1]octan-2-yl)cyclopropane-1-carboxamide], the IC50 lay within 10 to 50 µM.
On the same count and under the same terms, to `C[C@H]1C[C@@H](NC(=O)C2(c3ccc(SC(F)F)cc3)CC2)[C@@H]2CC[C@H]1N2c1nnn[nH]1` [85C*, 1-(4-((difluoromethyl)thio)phenyl)-N-((1S,2R,4S,5R)-4-methyl-8-(1H-tetrazol-5-yl)-8-azabicyclo[3.2.1]octan-2-yl)cyclopropane-1-carboxamide] belongs greater than 100 µM.
As to `C[C@H]1C[C@H](NC(=O)C2(c3ccc(SC(F)F)cc3)CC2)[C@@H]2CC[C@H]1N2c1nnn[nH]1` [85D*, 1-(4-((difluoromethyl)thio)phenyl)-N-((1S,2S,4S,5R)-4-methy1-8-(1H-tetrazol-5-yl)-8-azabicyclo[3.2.1]octan-2-yl)cyclopropane-1-carboxamide], the IC50 is greater than 100 µM.
For `C[C@@H]1C[C@H](NC(=O)C2(c3ccc(C(F)F)cc3)CC2)[C@H]2CC[C@@H]1N2c1nnn[nH]1` [86B*, 1-(4-(difluoromethyl)phenyl)-N-((1R,2S,4R,5S)-4-methyl-8-(1H-tetrazol-5-yl)-8-azabicyclo[3.2.1]octan-2-yl)cyclopropane-1-carboxamide], the IC50 fell in the range of 10 to 50 µM.
With `C[C@H]1C[C@@H](NC(=O)C2(c3ccc(C(F)F)cc3)CC2)[C@@H]2CC[C@H]1N2c1nnn[nH]1` [86C*, 1-(4-(difluoromethyl)phenyl)-N-((1S,2R,4S,5R)-4-methyl-8-(1H-tetrazol-5-yl)-8-azabicyclo[3.2.1]octan-2-yl)cyclopropane-1-carboxamide], the IC50 is greater than 100 µM.
In the case of `C[C@H]1C[C@H](NC(=O)C2(c3ccc(C(F)F)cc3)CC2)[C@@H]2CC[C@H]1N2c1nnn[nH]1` [86D*, 1-(4-(difluoromethyl)phenyl)-N-((1S,2S,4S,5R)-4-methyl-8-(1H-tetrazol-5-yl)-8-azabicyclo[3.2.1]octan-2-yl)cyclopropane-1-carboxamide], the IC50 was greater than 100 µM.
Regarding `Cc1ccc(C2(C(=O)N[C@H]3C[C@@H](C)[C@@H]4CC[C@H]3N4c3nnn[nH]3)CC2)cc1` [87B*, N-((1R,2S,4R,5S)-4-methy1-8-(1H-tetrazol-5-yl)-8-azabicyclo[3.2.1]octan-2-yl)-1-(p-tolyl)cyclopropane-1-carboxamide], the IC50 was in the range of 10 to 50 µM.
With `Cc1ccc(C2(C(=O)N[C@@H]3C[C@H](C)[C@H]4CC[C@@H]3N4c3nnn[nH]3)CC2)cc1` [87C*, N-((1S,2R,4S,5R)-4-methy1-8-(1H-tetrazol-5-yl)-8-azabicyclo[3.2.1]octan-2-yl)-1-(p-tolyl)cyclopropane-1-carboxamide], the IC50 is greater than 100 µM.
For the molecule `Cc1ccc(C2(C(=O)N[C@H]3C[C@H](C)[C@H]4CC[C@@H]3N4c3nnn[nH]3)CC2)cc1` [87D*, N-((1S,2S,4S,5R)-4-methy1-8-(1H-tetrazol-5-yl)-8-azabicyclo[3.2.1]octan-2-yl)-1-(p-tolyl)cyclopropane-1-carboxamide], the IC50 is greater than 100 µM.
`O=C(N[C@H]1CCC[C@@H]2CC[C@H]1N2c1nnn[nH]1)C1(c2ccc(C(F)(F)F)cc2O)CC1` [88B*, N-((1R,2S,6R)-9-(1H-tetrazol-5-yl)-9-azabicyclo[4.2.1]nonan-2-yl)-1-(2-hydroxy-4-(trifluoromethyl)phenyl)cyclopropane-1-carboxamide]: the IC50 is less than 1 µM.
As to `C[C@@H]1CC[C@@H](NC(=O)C2(c3ccc(C(F)(F)F)cc3O)CC2)CN(c2nnn[nH]2)C1` [89C*, 1-(2-hydroxy-4-(trifluoromethyl)phenyl)-N-((3R,6R)-6-methyl-1-(1H-tetrazol-5-yl)azepan-3-yl)cyclopropane-1-carboxamide], the IC50 fell in the range of 1 to 10 µM.
`C[C@@H]1CC[C@H](NC(=O)C2(c3ccc(C(F)(F)F)cc3O)CC2)CN(c2nnn[nH]2)C1` [89D*, 1-(2-hydroxy-4-(trifluoromethyl)phenyl)-N-((3S,6R)-6-methyl-1-(1H-tetrazol-5-yl)azepan-3-yl)cyclopropane-1-carboxamide]: the IC50 fell in the range of 1 to 10 µM.
